Laboratory results from US7700644B2, “Isoflavonoid dimers” (Novogen Research Pty Ltd, priority 2005, dated 2010).

What was measured:
LNCaP (Prostate) = assay: In vitro cytotoxicity, MTT proliferation assay, LNCaP; format: cell-based, human; conditions: Homo sapiens
Protocol: (§1) The human pancreatic cancer cell line, HPAC (CRL-2119) was routinely cultured in 1:1 mixture DMEM (Sigma) plus Ham's F12 (Sigma) medium containing HEPES (15 mM), insulin (0.002 mg/ml), transferrin (0.005 mg/ml), hydrocortisone, (40 ng/ml), epidermal growth factor (10 ng/ml). The ovarian cancer cell line CP70 was obtained as a gift from Dr. Gil Mor (Yale University) and cultured in a 1:1 mixture DMEM plus Ham's F12 medium, and SKOV-3 was purchased from ATCC and cultured in McCoy's 5a medium. The breast cancer cell line MDA-MB-468 cultured in Leibovitz's L-15 medium.
(§2) All cultures were supplemented with 10% FCS(CSL, Australia), penicillin (100 U/ml), streptomycin ([…]), L-glutamine (2 mM) and sodium bicarbonate (1.2 g/L), and cultured at 37° C. in a humidified atmosphere of 5% CO2. All remaining cell lines were purchased from ATCC (Maryland, USA) except where noted.
(§3) IC50 values were determined for each cell line. Cells were seeded in 96-well plates at an appropriate cell density as determined from growth kinetics analysis. NFFs were cultured for 5 days and RK-13s for 24 hrs in the absence and presence of the test compounds. Cell proliferation was assessed after the addition of 20 μl of 3-4,5 dimethylthiazol-2,5-diphenyl tetrazolium bromide (MTT, 2.5 mg/ml in PBS, Sigma) for 3-4 hrs at 37° C. according to manufacturer's instructions. IC50 values were calculated from semi-log plots of % of control proliferation on the y-axis against log dose on the x-axis.

SKOV-3 (Ovarian) = assay: In vitro cytotoxicity, MTT proliferation assay, SKOV-3; format: cell-based, human; conditions: Homo sapiens, SK-OV-3; Ovarian SKOV-3
Protocol: as §1, §2, §3

NCI-H460 (Lung) = assay: In vitro cytotoxicity, MTT proliferation assay, NCI-H460; format: cell-based, human; conditions: Homo sapiens
Protocol: as §1, §2, §3

MCF-7 (Breast) = assay: In vitro cytotoxicity, MTT proliferation assay, MCF-7; format: cell-based, human; conditions: Homo sapiens, MCF7; Breast MCF-7
Protocol: as §1, §2, §3

splenocytes = assay: Murine splenocyte proliferation with mitogens (MTT), 3 day incubation with compound; format: cell-based, Male Skh-1 (hairless) mice
Protocol: Male Skh-1 (hairless) mice, six weeks old were killed by cervical dislocation. Single cell suspensions were made from their spleens and erythrocytes were lysed in buffer (0.14M NH4Cl, 17 mM Tris, pH 7.2). The remaining splenocytes were cultured in RPMI-1640 (Gibco) supplemented with 10% (v:v) FBS, 200 mM L-glutamine, penicillin/streptomycin and […] 2-mercaptoethanol. […] Samples were analysed after a 3 day incubation at 37° C. in 5% CO2 in air. To assess cell numbers, methylthiazoletetrazolium (MTT) was added to each well, incubated for a further 4 hrs and then colour developed with 0.04N HCl in isopropanol (Mosmann 1983). Plates were read at 570 nm and 630 nm. The compounds were examined several times using different mice. For each assay, the effect of test compound was compared with that of vehicle control, and the results compared using a student's t test (Prism). Statistically significant difference was determined to have occurred when p<0.05.

[1] = tested on: breast cancer cell line MDA-MB-468; assay: In vitro cytotoxicity, MTT proliferation assay, MDA-MB-468; format: cell-based, human; conditions: Homo sapiens; Breast MDA-MB-468
Protocol: as §1, §2, §3

[2] = tested on: RK-13 (rabbit kidney) cells; assay: Normal cell toxicity, MTT proliferation assay, rabbit kidney cells; format: cell-based; conditions: Oryctolagus cuniculus, 24 hrs
Protocol: Neonatal foreskin fibroblasts (NFF) were a gift from Dr. Peter Parsons (Queensland Institute of Medical Research). RK-13 (rabbit kidney) cells were obtained from Miller Whalley (Macquarie University). Both cell types were cultured in RPMI supplemented with 10% FCS (CSL, Australia), penicillin (100 U/ml), streptomycin ([…]), L-glutamine (2 mM) and sodium bicarbonate (1.2 g/L), and cultured at 37° C. in a humidified atmosphere of 5% CO2.
as §3

PC3 (Prostate) = assay: In vitro cytotoxicity, MTT proliferation assay, PC3; format: cell-based, human; conditions: Homo sapiens
Protocol: as §1, §2, §3

TXB2 synthesis = TXB2 synthesis in human monocytes incubated with LPS; format: cell-based; conditions: LPS 200 ng/mL, 18 hrs, dose responsive
Protocol: (§4) Human peripheral blood monocytes (from three separate individuals) were isolated from buffy coats by lymphoprep gradient separation of mononuclear cells followed by counter-current centrifugal elutriation (Demasi et al. 2000). The test compounds were dissolved in DMSO and added to fresh monocytes After 30 min, LPS was added to achieve a final concentration of 200 ng/mL. After incubation for 18 hrs at 37° C. in 5% CO2, supernatants were removed and PGE2, TXB2 (the stable hydrolysis product of TXA2) and TNFα production were measured by radioimmunoassay (RIA).

MM200 (Melanoma) = assay: In vitro cytotoxicity, MTT proliferation assay, MM200; format: cell-based, human; conditions: Homo sapiens
Protocol: as §1, §2, §3

MM96L (Melanoma) = assay: In vitro cytotoxicity, MTT proliferation assay, MM96L; format: cell-based, human; conditions: Homo sapiens
Protocol: as §1, §2, §3

[3] = Toxicity study, i/p administration in mice; format: in vivo; conditions: 50 mg/kg i/p daily
Protocol: In a small study, BALB/cnu/nu mice were administered with either Compound 2 (n=2) as a solution in 6% Tween 20:PBS at 50 mg/kg or an equivalent volume of vehicle (n=2), by i/p injection. Mice were weighed and observed for signs of toxicity daily using clinical monitoring sheets. On day 9, mice were killed by cervical dislocation, and the kidney, spleen and liver of each mouse were collected for histological assessment of toxicity.

TNFα synthesis = TNFα synthesis in human monocytes incubated with LPS; format: cell-based; conditions: LPS 200 ng/mL, 18 hrs
Protocol: as §4

HTB-138 (Glioma) = assay: In vitro cytotoxicity, MTT proliferation assay, HTB-138; format: cell-based, human; conditions: Homo sapiens; Glioma HTB-138
Protocol: as §1, §2, §3

COc1ccc(C23COc4c(ccc(O)c4C)C2C2c4ccc(O)c(C)c4OCC2c2cc(OC)c(OC)cc23)cc1OC (centres unmarked) [Cpd. 2, 4,9-Dihydroxy-14,15-dimethoxy-12a-(3′,4′-dimethoxyphenyl)-3,10-dimethyl-2,11-dioxa-(1H,12H)-6b,6c,12a,16b-tetrahydronaphtho[1,2-g]chrysene]
IC50 (LNCaP (Prostate)): 12 ± 4.3 µM
IC50 (SKOV-3 (Ovarian)): 16.7 ± 10 µM
IC50 (NCI-H460 (Lung)): 11.3 ± 4.97 µM
IC50 (MCF-7 (Breast)): 10.3 µM
effect on splenocyte proliferation (splenocytes; 10 μM, four different assays): no consistent trend
proliferation compared with vehicle control (splenocytes; higher concentrations (than 10 μM), regardless of mitogenic stimulation): reduced proliferation
IC50 [1]: 8.59 ± 0.35 µM
IC50 [2]: 36 ± 2.7 µM
IC50 (PC3 (Prostate)): 7.36 ± 1.35 µM
effect on TXB2 synthesis (TXB2 synthesis): inhibited
IC50 (MM200 (Melanoma)): 6.5 µM
IC50 (MM96L (Melanoma)): 6.8 µM
body weight gain vs vehicle ([3]; 9 days): no difference
clinical signs ([3]; 9 days): no abnormal clinical signs
histological assessment of toxicity (kidney, spleen, liver) ([3]; day 9): no histological evidence of toxicity
effect on induction of TNFα (TNFα synthesis): inhibited
IC50 (HTB-138 (Glioma)): 16.4 µM
